In patent publication US10478497B2, “Combinations of inecalcitol with an anti-CD38 agent and their uses for treating cancer” (HYBRIGENICS SA., priority 2016, dated 2019):

Tests used:
Assay type in all cases: cell-based, human
[1] = test system: L-428 classical Hodgkin lymphoma cell line; assay: CD38 expression by flow cytometry on L-428 cells
From the text: (§1) HL-60 acute promyelocytic leukemia cell line was purchased from ECACC (cat. 98070106), U-937 hystiocytic lymphoma cell line and MM.1S multiple myeloma cell line were purchased from ATCC (cat. CRL-2974 and cat CRL-1593,2, respectively), L-363 multiple myeloma cell line, L-428 classical Hodgkin lymphoma cell line and RS4,11 B-acute lymphoblastic leukemia cell lines were purchased from DSMZ (plasma cell leukemia, cat. ACC 49, cat. ACC 197 and cat. ACC 508, respectively). All cells were maintained in RPMI Medium 1640—GlutaMAX™ (Gibco 61870) except the RS4,11 cells in alpha-MEM Medium (Gibco 12571-063), supplemented with 10% heat inactivated charcoal stripped fetal bovine serum. All culture media were supplemented with 100 units/ml penicillin and 0.1 mg/ml streptomycin, and cell lines were cultured at 37° C. in a humidified atmosphere containing 5% CO2.
(§2) Cells were treated for 72 h with various concentrations of inecalcitol (Hybrigenics, Paris, France) before labelling with fluorescent anti-human CD38 FITC (eBioscience, Vienna, Austria, cat. 11-0389-41) or the matched isotype control: mouse IgG1 K FITC (eBioscience, Vienna Austria, cat. 11-4714-41) for 1 h at 4° C. in native buffer (PBS, 2% BSA, 0.1% sodium azide). After cell wash, fluorescence was measured on an ACEA NovoCyte Flow Cytometer.

[2] = test system: U-937 hystiocytic lymphoma cell line; assay: CD38 expression by flow cytometry on U-937 cells
From the text: as §1, §2

[3] = test system: HL-60 acute promyelocytic leukemia cell line; assay: CD38 expression by flow cytometry on HL-60 cells
From the text: as §1, §2

[4] = test system: L-363 multiple myeloma cell line; assay: CD38 expression by flow cytometry on L-363 cells
From the text: as §1, §2

[5] = test system: MM.1S multiple myeloma cell line; assay: CD38 expression by flow cytometry on MM.1S cells
From the text: as §1, §2

[6] = test system: RS4,11 B-acute lymphoblastic leukemia cell line; assay: CD38 expression by flow cytometry on RS4,11 cells
From the text: as §1, §2

EC50 ([1]; L-428 cells, 72 h treatment, anti-human CD38 FITC flow cytometry, read-out: concentration which triggered 50% of the maximum CD38 induction (EC50)): 0.23 nM | EC50 ([2]; U-937 cells, 72 h treatment, anti-human CD38 FITC flow cytometry, read-out: concentration which triggered 50% of the maximum CD38 induction (EC50)): 0.57 nM | EC50 ([3]; HL-60 cells, 72 h treatment, anti-human CD38 FITC flow cytometry, read-out: concentration which triggered 50% of the maximum CD38 induction (EC50)): 0.43 nM | EC50 ([4]; L-363 cells, 72 h treatment, anti-human CD38 FITC flow cytometry, read-out: concentration which triggered 50% of the maximum CD38 induction (EC50)): 4 nM | EC50 ([5]; MM1.S, MM.1s cells, 72 h treatment, anti-human CD38 FITC flow cytometry, read-out: concentration which triggered 50% of the maximum CD38 induction (EC50)): 0.49 nM | EC50 ([6]; RS4,11 cells, 72 h treatment, anti-human CD38 FITC flow cytometry, read-out: concentration which triggered 50% of the maximum CD38 induction (EC50)): 0.55 nM
Compound: C[C@H](CC#CC(C)(C)O)[C@H]1CC[C@@H]2/C(=C/C=C3C[C@@H](O)C[C@H](O)C3)CCC[C@@]21C [inecalcitol, 14epi-, 19nor-, 23yne-, 1,25dihydroxy-cholecalciferol]
effect on CD38 expression (fold increase of CD38 mean fluorescent signal), in words ([1]; FIG. 5, classical Hodgkin lymphoma cell line, dose dependent): enhances CD38 expression | increase in fluorescent labelling (CD38) ([1]; L-428 cells, 72 h treatment): 2 fold | effect on CD38 expression (fold increase of CD38 mean fluorescent signal), in words ([2]; FIG. 3, U-937 cell line, dose dependent): enhances CD38 expression | maximal increase in fluorescent labelling (CD38) ([2]; U-937 cells, 72 h treatment): 5 fold | effect on CD38 expression (fold increase of CD38 mean fluorescent signal), in words ([3]; FIG. 4, HL-60 cell line, dose dependent): enhances CD38 expression | effect on CD38 expression (fold increase of CD38 mean fluorescent signal), in words ([4]; FIG. 2, L-363 cell line, dose dependent): enhances CD38 expression | maximal increase in fluorescent labelling (CD38) ([4]; L-363 cells, 72 h treatment): 5 fold | effect on CD38 expression (fold increase of CD38 mean fluorescent signal), in words ([5]; FIG. 1, MM.1S cell line, dose dependent): enhances CD38 expression | maximal increase in fluorescent labelling (CD38) ([5]; MM.1s cells, 72 h treatment): 5 fold | effect on CD38 expression (fold increase of CD38 mean fluorescent signal), in words ([6]; FIG. 6, RS4.11 cell line, dose dependent): enhances CD38 expression | increase in fluorescent labelling (CD38) ([6]; RS4,11 cells, 72 h treatment): 2.5 fold
